Values of other authors in US9078925B2, “Pharmaceutical semi-solid composition of isotretinoin” (GALEPHAR PHARMACEUTICAL RESEARCH, INC., priority 2012, dated 2015).
Like-named read-outs stand apart in the source and are kept apart here.

Assays:
[1] = not given; remark: listed apart in the source

bioavailability after an oral intake (fasted conditions): 25% | bioavailability after an oral intake (fed conditions): 40% | time to reach steady-state concentrations (of treatment): 1 week | solubility in water [1]: poorly soluble in water
Structure (SMILES): CC1=C(/C=C/C(C)=C/C=C/C(C)=C\C(=O)O)C(C)(C)CCC1 [Isotretinoin, 13-cis retinoic acid]
